Measurements as given in patent EP1080724A1, “MTP ACTIVITY-LOWERING COMPOSITIONS” (Nippon Shinyaku Co., Ltd., priority 1998, dated 1999).
Counter-ions that a name gives are not always drawn.

Legend:
[1] = tested on: HepG2 cells; assay: TG antisecretory activity: secreted triglyceride from labeled lipid in medium; assay type: cell-based; conditions: 10 µM, 24 hours of culture, control group 161.2± 2.2
Description: HepG2 cells were cultured in DME medium supplemented with 1% BSA and 0.5 mM oleic acid for 24 hours. Then, the medium was changed to 1% BSA-DME containing 10 µM of the amino acid of the invention and simultaneously 0.5 µci of [^14C] acetic acid was added. The cells and medium were recovered after 24 hours of culture. The recovered cells were homogenized by sonication, and after quantitation of protein, the amount of secreted triglyceride (TG) was determined from the amount of labeled lipid in the medium.

[2] = tested on: MTP; assay: MTP activity-lowering activity (MTP activity in liver homogenate of orally dosed rats, method of Wetterau); assay type: in vivo; conditions: SD rats, control group 9.09±1.0
Description: SD rats weighing about 200 g in groups of 6 were given 20 mg or 60 mg of the hydrochloride of the amino acid of the invention in 10 ml of water in 3 divided doses daily for 2 weeks. Thereafter, the liver was excised and homogenized using a homogenizing buffer (50 mM Tris (pH 7.4), 50 mM potassium chloride, […], leupeptin (5 µg/ml) and 2 mM phenylmethylsulfonyl fluoride) and the homogenate was centrifuged to give a liver homogenate. This liver homogenate was adjusted to a protein concentration of about 2 mg/mL with the same homogenizing buffer and 1 part of deoxycholate solution (0.56%, pH 7.5) was added to 10 parts of the homogenate. The reaction was then carried out at 4°C for 30 minutes, whereby MTP was liberated from the microsomal fraction. The membrane fraction was then removed by centrifugation to give a supernatant. This supernatant was diluted with Tris buffer (a buffer solution containing 15 mM Tris (pH 7.4), 40 mM NaCl, 1 mM EDTA, 0.02% NaN3) and dialyzed against the same buffer at 4°C overnight. The dialysate thus obtained was analyzed for MTP activity by the method of J. R. Wetterau [Science, 258, 999 (1992)].

[3] = tested on: HepG2 cells; assay: Apo B antisecretory activity (1): apo B secreted into medium, ELISA; assay type: cell-based, human; conditions: for Apo B secretions (µg/well): HepG2 cells, 24 hours culture, control group 9.92±0.80
Description: HepG2 cells (100×10^4 cells/dish) were sown on 3.5 cm dishes and precultured using 1 ml DME (containing 10% FCS) medium per dish. Following this preculture, the cells were washed with DME medium twice, added to the test medium, and cultured at 37°C under 95% air-5% carbon dioxide for 24 hours. The test medium was prepared by dissolving cycloalliin in dimethyl sulfoxide and diluted with DME medium containing 1% BSA and 0.5 mM oleic acid to a final cycloalliin concentration of 10^-6 M or 10^-4 M.
After 24 hours' culture, the medium was recovered and the amount of apo B secreted into the medium was determined by ELISA. Thus, anti-human apo B antibody (a 100-fold dilution) was distributed into a 96-well ELISA plate, 100 µL per well, and incubated at 37°C for 2 hours. Then, 100 µL/well of Block Ace was added and the plate was further incubated at 37°C for 2 hours. The wells were washed with PBS-Tween × 3 and 100 µL each of apo B standard solution and HepG2 culture were added, followed by further incubation at 4°C for 16 hours. After the wells were washed with PBS-Tween × 3, 100 µL/well of anti-human apo B marker antibody (a 200-fold dilution) was added and the plate was incubated at 37°C for 2 hours. The wells were washed with PBS-Tween × 3, then 100 µL/well of the substrate solution was added, and the plate was incubated at 25°C for 30 minutes. The reaction was stopped by adding 50 µL of 4.5 M H2SO4 and the absorbance at 482 nm was measured to estimate the amount of apo B secretion.

[4] = tested on: HepG2 cells; assay: Apo B antisecretory activity (2): apo B secretions, ELISA; assay type: cell-based; conditions: 10 µM; for Apo B secretions (ng/mg protein) After 24 hr of culture: control group 2544±425; for Apo B secretions After 24 hr of culture (%) / Apo B secretions After 48 hr of culture (%): percent of control group (100); for Apo B secretions (ng/mg protein) After 48 hr of culture: control group 2080±110
Description: HepG2 cells were cultured in DME medium supplemented with 1% BSA and 0.5 mM oleic acid for 24 hours. Then, the medium was changed to 1% BSA-DME medium containing 10 µM of the amino acid of the invention and 0.5 µci of [^14C] acetic acid was simultaneously added. The cells and medium were recovered after 24 hours or 48 hours of culture. The recovered cells were homogenized by sonication, and after quantitation of protein, the amount of apo B secretions was determined by ELISA.

[5] = 60 mg in 10 ml of water in 3 divided doses daily for 2 weeks

| Compound | TG secretions ([^14C]dpm × 10^-2/mg protein) [1] | MTP activity (%) [2, 5] | Apo B secretions (ng/mg protein) After 24 hr of culture [4] | Apo B secretions After 24 hr of culture (%) [4] | Apo B secretions (ng/mg protein) After 48 hr of culture [4] | Apo B secretions After 48 hr of culture (%) [4] | also measured |
| --- | --- | --- | --- | --- | --- | --- | --- |
| C[S+]([O-])CCC(N)C(=O)O (racemic) [DL-methionine sulfoxide] | 72.1± 8.5 [^14C]dpm × 10^-2/mg protein | – | – | – | – | – | – |
| C[C@H]1C[S@+]([O-])C[C@@H](C(=O)O)N1 [Cycloalliin HCl, (1S,3R,5S)-5-methyl-1,4-thiazane-3-carboxylic acid 1-oxide] | – | 4.92±1.0 % | – | – | – | – | MTP activity (%) ([2]; 20 mg in 10 ml of water in 3 divided doses daily for 2 weeks): 6.12±0.7 % |
| C[C@H]1C[S@+]([O-])C[C@@H](C(=O)O)N1 [Cycloalliin, (1S,3R,5S)-5-methyl-1,4-thiazane-3-carboxylic acid 1-oxide] | – | – | – | – | – | – | Apo B secretions (µg/well) ([3]; 10^-4 M): 7.67±1.31 µg/well; Apo B secretions (µg/well) ([3]; 10^-6 M): 7.54±1.13 µg/well; apo B secretion (result in words) ([3]; summary of Table 2): significant suppression |
| CCSC[C@H](N)C(=O)O [S-ethyl-L-cysteine] | 102.2± 7.1 [^14C]dpm × 10^-2/mg protein | – | 2390±615 ng/mg protein | 93.9% | 994±111 ng/mg protein | 47.8% | – |
| CSC[C@H](N)C(=O)O [S-methyl-L-cysteine HCl, S-methyl-L-cysteine] | – | 5.68±0.6 % | – | – | – | – | – |
| CSC[C@H](N)C(=O)O [S-methyl-L-cysteine] | 128.2±14.6 [^14C]dpm × 10^-2/mg protein | – | 2511±173 ng/mg protein | 98.7% | 1906±122 ng/mg protein | 91.6% | – |
| CCCSC[C@H](N)C(=O)O [S-n-propyl-L-cysteine] | 99.0± 9.3 [^14C]dpm × 10^-2/mg protein | – | 2157± 86 ng/mg protein | 84.8% | 555± 23 ng/mg protein | 26.7% | – |
| S-methyl-L-cysteine sulfoxide [S-methyl-L-cysteine sulfoxide HCl] | – | 5.43±0.6 % | – | – | – | – | – |
| S-n-propyl-L-cysteine sulfoxide | 105.8±18.9 [^14C]dpm × 10^-2/mg protein | – | – | – | – | – | – |
